Structures can show the parent of a compound that is named as a salt.
Key:
[1] = test system: KB-CH 8-5; test: In vivo model of tumorigenicity, nude mice carrying resistant human tumor
Method: 3. In Vivo Model of Tumorigenicity
where the effect of NCO-700 in the ability of adriamycin to reduce tumor mass in drug-resistant neoplasms was measured.
For the in vivo model of tumorigenicity, cell lines developed by Pastan and Gottesman which can grow as solid tumors in nude mice were utilized. This cell line was designated KB-CH 8-5, and was a nonreverting resistant cell line. All of these cancer cell lines were generously provided by Dr. Gottesman.
In the next series of experiments, an in vivo model of tumorigenicity was utilized to examine the effect of NCO-700 on tumor mass. These experiments were performed with the cell line KB-CH-8/5, which is a cell line developed by Drs. Gottesman and Pastan, specifically for use in animals as the cells from solid tumors in vivo. Nude male mice, 5-6 weeks old and weighing between 25-30 g, were injected subcutaneously with 2-5×10^6 KB-CH-8/5 cells and treated for 14 days with 0.6 mg/kg adriamycin and with or without NCO-700 in doses ranging from 0-80 mg/kg NCO-700 per day. The data shown in FIG. 37 were obtained by weighing the well-encapsulated, excised tumor and recording the body weight of the mice.

[2] = test system: human prostate cancer cells; test: Subrenal capsule (SRC) tumor implant assay, prostate cancer; format: in vivo, human tumor in BDF/1 mice
Method: FIG. 17 is a graph showing the relationship between the mean change in size of tumor (delta mean) and the dosage of NCO-700 in a sub-renal capsule assay of human prostate cancer in BDF/1 mice.
3. In Vivo Model/Subrenal Capsule (SRC) Tumor Implant Assay
(§1) A tumor implant model, where human tumors were implanted into the renal capsule of mice was performed. The tumors successfully escaped the immune system of the mouse and grew over a six-day period. The advantage of this assay is that the effect of chemotherapeutic agents can be tested in vivo. This model was developed at the University of California, Irvine by Stratton et al. (Gynecologic Oncology 17:185-188, 1984). Human tumors were implanted on day one and were exposed to drug on days two-six. The size of the implant was determined at time zero and at the end of five days of drug treatment, and the difference in size of the implanted tumor at day six, when compared to control animals not exposed to drug, is referred to herein as the delta mean.
Human cancer cells can be grown in the sub-renal capsule of mice, where for a limited period of time they escaped the detection of the mouse's immune system. This assay provides a convenient system to study the effect of drugs on the growth of tumor cells in vivo. As this is a much more time-consuming assay, and requires more drug than the in vitro assays, the effect of NCO-700 was tested on a single prostate cancer cell line. Three groups of animals (n=23 total) were tested with three concentrations of NCO-700 including, 10 mg/kg, 20 mg/kg and 40 mg/kg.

[3] = test system: HEP-129 (liver); test: Cancer cell death assay (LDH release), liver line; format: cell-based, human; conditions: compound alone, 24 hours
Method: FIG. 4 is a graph showing the relationship between LDH released and the concentration of NCO-700 in cancer cell death assays of human cancer cell lines MCF-7 (breast), HL-60 (leukemia), and HEP-129 (liver).
1. Cancer Cell Death Assay
Cell death was measured quantitatively by the release of a marker intracellular enzyme, lactate dehydrogenase (LDH), from damaged or killed cells. LDH released into the extracellular fluid, was measured 24 hours after drug exposure to cancer cells and the enzyme activity was determined by the method of Decker et al. (J. Immunolog Methods 15:61-99, 1988).
All cell lines used in the present study were obtained from the American Type Tissue Culture Laboratory and cultured according to their specifications. All were human cancer lines unless otherwise noted. The following cell lines and their tissue of origin used in our studies were:
The first assays performed measured the anti-neoplastic activity of NCO-700, alone, in cell death assays of a wide variety of human cancer cells. The results of these experiments are shown in FIGS. 1-6, where a dose-response curve of NCO-700 versus % LDH release is plotted, with higher values of LDH released indicating greater anti-neoplastic activity (apoptosis).

[4] = test system: T-47D (breast); test: Cancer cell survival assay, T-47D; format: cell-based, human; conditions: seven days, alone
Method: Cell survival was assayed in cultured tumor cells. From 500-1000 cells per well were plated in 24-welled culture dishes and exposed to drug for seven days. After drug exposure, a computerized cell imaging technique was utilized to ascertain the number of viable cells remaining in each culture. From the data, survival curves were plotted and a ED50 (drug concentration that permits 50% cell survival) were calculated.
The cancer cell survival assay is an important additional in vitro assay to assess the anti-neoplastic activity of compounds as the cells are given a prolonged exposure (seven days) to the drug. FIGS. 9-16 show the effect of increasing the dose of NCO-700 on the survival of a number of cancer cell lines. […] In the figures, the vertical axis is the object area, which is the number of surviving cancer cells calculated by a computer.

[5] = test system: human colon cancer cells; test: Subrenal capsule (SRC) tumor implant assay, colon cancer; format: in vivo, human tumor in BDF/1 mice
Method: FIG. 19 is a graph showing the relationship between the change in size of tumor and the dosage of NCO-700 in a sub-renal capsule assay of human colon cancer in BDF/1 mice.
as §1
The effect of NCO-700 on a colon cancer line was tested in the SRC assay. Three groups of animals (n=18 total) were tested with two concentrations of NCO-700 including. 50 mg/kg and 100 mg/kg. […] These studies confirm the high potential of NCO-700 and related compounds as new anti-neoplastic agents.

CCOC(=O)[C@@H]1O[C@H]1C(=O)N[C@@H](CC(C)C)C(=O)N1CCN(Cc2ccc(OC)c(OC)c2OC)CC1 [NCO-700, Bis[ethyl (2R,3R)-3-[(S)-3-methyl-1-[4-(2,3,4-trimethoxyphenylmethyl)piperazin-1-ylcarbonyl]butylcarbamoyl]oxirane-2-carboxylate] Sulfate]
effect on tumor, alone ([1]; NCO-700 on its own): not significantly effective on its own
decline of tumor mass ([1]; NCO-700 with adriamycin): 60%
loss of body weight ([1]; nude mice carrying resistant human tumor): without any corresponding loss of body weight
potentiation of the effect of adriamycin on tumor ([1]; with 0.6 mg/kg adriamycin, 14 days, NCO-700 0-80 mg/kg per day): significantly potentiated the effect of adriamycin, especially at an amount of 40 mg/kg or more
effect on tumor size ([2]; 10 mg/kg): no effect
effect on tumor size ([2]; 20 mg/kg): significant anti-neoplastic effect
effect on tumor size ([2]; 40 mg/kg): highly significant
anti-neoplastic activity (LDH release) [3]: did not respond
anti-neoplastic activity (cell survival) [4]: significant anti-neoplastic activity
effect on tumor size ([5]; 50 mg/kg): slight effect
effect on tumor size ([5]; 100 mg/kg): significant anti-neoplastic effect

Reference: patent US6054437A, “Method for inducing death of neoplastic cells using piperazine derivatives” (Hitachi Chemical Research Center, Inc., priority 1997, dated 2000)
